Reference: patent US6939830B1, “Method for fighting soil insects with phenyl-pyrazoles” (Basf Agro B.V. Arnhem (NL) - Wadenswil Branch, priority 1999, dated 2005)

Columns and labels:
[1] = system: larvae of click beetles of the genus Agriotes, in particular Agriotes sordidus; assay: Maize field trial, St Hilaire: emerged plants counted after bait granules incorporated in the sowing row; format: in vivo; details: 22 days after sowing, 2 mm maize-meal granules with 0.25% fipronil, untreated 19
Description: (§1) A surface of 0.1 ha is sown with maize at the rate of about 8000 untreated seeds. This surface is divided into 40-m^2 plots. At the same time as the sowing, there are incorporated into the soil, in the sowing row, 2 mm granules containing a composition consisting of: The quantities of granules thus spread vary from 2.5 to 10 kg per hectare. Untreated plots are kept to serve as control and to verify the extent of the damage by the insects. Likewise, the plots will be treated with a commercial insecticide which is reputed effective and called reference. Each modality is repeated four times. Approximately 20 days after sowing, the maize plants which have emerged are counted. The soil is dug out and scraped in order to capture and identify the insects responsible for the damage; a large presence of larvae of click beetles of the genus Agriotes, in particular Agriotes sordidus, is observed for the untreated control.

[2] = system: larvae of click beetles of the genus Agriotes, in particular Agriotes lineatus; assay: Maize field trial, Beaufort: emerged plants counted after bait granules incorporated in the sowing row; format: in vivo; details: 50 days after sowing, 2 mm maize-meal granules with 0.25% fipronil, untreated 30
Description: as §1, with “1” for “0.1”, “98, 100” for “8000”, “27-m^2” for “40-m^2”, “50” for “20”, “lineatus.” for “sordidus, is observed for the untreated control.”

[3] = dose of fipronil 6 g per hectare
[4] = dose of fipronil 50 g per hectare

## N#Cc1nn(-c2c(Cl)cc(C(F)(F)F)cc2Cl)c(N)c1[S+]([O-])C(F)(F)F (stereo not shown) [fipronil, 5-amino-3-cyano-1-[2,6-di-chloro-4-(trifluoromethyl)phenyl]-4-[(trifluoromethyl)-sulphinyl]-1H-pyrazole]
[1]; [3]
  plants observed per 10 meters of furrow: 49 plants per 10 meters of furrow
[1]; [4]
  plants observed per 10 meters of furrow: 49 plants per 10 meters of furrow
[2]; [3]
  plants observed per 10 meters of furrow: 40 plants per 10 meters of furrow
[2]; [4]
  plants observed per 10 meters of furrow: 49.8 plants per 10 meters of furrow
